Results reported in publication PMC8415707 (Frontiers in Pharmacology, 2021).
No end group written: not given here.

Experiments:
[1] = tested on: Propionibacterium acnes ATCC 6919; assay: microbe, parasite or virus in culture; format: cell-based
Protocol: (§1) The antimicrobial activity of FM-CATH was measured using two-fold dilution method as reported previously by us ([Ye et al., 2020]). Microorganisms bought from Guangdong Institute of Microbiology were cultured in Muller-Hinton (MH) broth at 37°C to exponential phase and subsequently diluted with fresh MH broth to reach 10^6 CFU/ml of density. An equal volume of microbial inoculums in 96-well plates was incubated with different concentrations of FM-CATH at 37°C for 14 h. The absorbance at 600 nm was measured by a microplate spectrophotometer (Infinite M1000 Pro, Tecan Company, Switzerland) to calculate the minimal inhibitory concentration (MIC) values. […] Ampicillin and polymyxin B were used as positive controls.

[2] = tested on: Bacillus subtilis CMCC 63501; assay: microbe, parasite or virus in culture; format: cell-based
Protocol: as §1

[3] = tested on: Candida albicans ATCC 10231; assay: microbe, parasite or virus in culture; format: cell-based
Protocol: as §1

[4] = tested on: Pseudomonas aeruginosa ATCC 27853; assay: microbe, parasite or virus in culture; format: cell-based
Protocol: as §1

mouse erythrocytes = settings: 40 μM, 2% mouse erythrocyte suspension in TBS, room temperature, 2 h, absorbance 540 nm
Protocol: Hemolytic assay was carried out with fresh blood from mouse heart as reported in our previous article with minor modification ([Chai et al., 2021]). […] 1% Triton X-100 and PBS were applied as the positive and negative control, respectively. The absorbance of the supernatant at 540 nm was measured with a microplate spectrophotometer. The hemolysis rate was calculated using the following formula: percentage hemolysis = (ODsample—ODPBS)/(ODTriton—ODPBS) × 100%.

MDCK = assay: Cytotoxicity by MTT; format: cell-based; settings: 24 h, 2.5-40 μM tested, n = 3, read-out: IC50 (proliferation, MTT)
Protocol: (§2) Three tumor cell lines (A549, HepG2, and MDA-MB-231) and two normal mammalian cell lines (MH-S and MDCK) were seeded in 96-well plates at a density of 5,000 cells per well. […] The supernatant was removed and DMSO was added before the absorbance at 490 nm was measured.

HepG2 = assay: Cytotoxicity by MTT; format: cell-based; settings: HepG2, 24 h, 2.5-40 μM tested, n = 3; read-out: IC50 (proliferation, MTT)
Protocol: as §2

MDA-MB-231 = settings: MDA-MB-231, 24 h, 2.5-40 μM
Protocol: as §2

MH-S = settings: 24 h, 2.5-40 μM
Protocol: as §2

A549 = assay: Cytotoxicity by MTT; format: cell-based; settings: A549, 24 h, 2.5-40 μM tested, n = 3; read-out: IC50 (proliferation, MTT)
Protocol: as §2

[5] = tested on: Escherichia coli ATCC 25922; format: cell-based; settings: ATCC 25922, 14 h
Protocol: The antimicrobial activity of FM-CATH was measured using two-fold dilution method as reported previously by us ([Ye et al., 2020]). Microorganisms bought from Guangdong Institute of Microbiology were cultured in Muller-Hinton (MH) broth at 37°C to exponential phase and subsequently diluted with fresh MH broth to reach 10^6 CFU/ml of density. An equal volume of microbial inoculums in 96-well plates was incubated with different concentrations of FM-CATH at 37°C for 14 h. The absorbance at 600 nm was measured by a microplate spectrophotometer (Infinite M1000 Pro, Tecan Company, Switzerland) to calculate the minimal inhibitory concentration (MIC) values.

[6] = Isothermal titration calorimetry, binding to LPS; set-up: species or system Escherichia coli O55:B5; settings: ITC, 1 mM peptide titrated into 50 μM LPS, 50 mM PBS pH 7.2, 25°C, single-site model
Protocol: ITC assay was carried out to investigate the thermodynamics of interactions between peptides and LPS or LTA using MicroCal PEAQ-ITC (Malvern; United Kingdom). 50 mM of PBS (pH 7.2) was used to prepare stock solutions of peptide, LPS, and LTA. […] In LTA binding experiment, 100 μM LTA in the syringe was titrated into 280 μL of 50 μM FM-CATH in the cell with the condition described above. Instrument was operated in high feedback mode. After the heats derived from dilution were subtracted, the equilibrium disassociation constant (K D) and the enthalpy change (ΔH) were analyzed by fitting to a single-site binding model using the MicroCal Origin software. The Gibb’s free energy change (ΔG) and entropy change (ΔS) were obtained from the basic thermodynamic equations, respectively.

[7] = tested on: Staphylococcus aureus ATCC 25923; assay: Antimicrobial assay (MIC, two-fold dilution); format: cell-based; settings: MH broth, 10^6 CFU/ml, 37°C, 14 h, absorbance 600 nm
Protocol: as §1

[8] = two-fold dilution, MH broth, 10^6 CFU/ml, 37°C, 14 h, absorbance 600 nm

Molecule: CC1(C)S[C@@H]2[C@H](NC(=O)[C@H](N)c3ccccc3)C(=O)N2[C@H]1C(=O)O [Ampicillin]
- MIC ([1]; Cutibacterium acnes, ATCC6919, 14 h): > 100 µM
- MIC ([2]; Bacillus subtilis, CMCC63501, 14 h): > 100 µM
- MIC ([3]; Candida albicans, ATCC10231, 14 h): > 100 µM
- MIC ([4]; Pseudomonas aeruginosa, ATCC27853, 14 h): > 100 µM

Molecule: LKTKALNKLKQKLQAVGNLIGSVIKG [FM-CATH]
- hemolytic activity (mouse erythrocytes): almost no hemolytic activity
- IC50 (MDCK): 337 µM
- MIC ([1]; ATCC 6919, 14 h): 6.25 µM
- MIC ([2]; CMCC 63501, 14 h): 12.5 µM
- MIC ([3]; ATCC 10231, 14 h): 6.25 µM
- MIC ([4]; ATCC 27853, 14 h): 50 µM
- IC50 (HepG2): 33.4 µM
- cytotoxicity (MTT) (MDA-MB-231): very low cytotoxicity
- cytotoxicity (MTT) (MH-S): very low cytotoxicity
- IC50 (A549): 11.7 µM
- MIC [5]: 6.25 µM

Molecule: Polymyxin B
- Kd [6]: 0.414 µM
- ∆H [6]: 5.9 ± 0.156 kcal/mol
- MIC [1, 8]: 6.25 µM
- MIC [2, 8]: 25 µM
- MIC [3, 8]: 25 µM
- MIC [4, 8]: 50 µM
- MIC [7]: >100 µM
